Like-named read-outs stand apart in the source and are kept apart here.
How the values were obtained:
Kv1.5 = target: T1, Kv1.5 (Homo sapiens, UniProt P22460); experiment: Kv1.5 channel block in stably expressing HEK 293 cells; assay type: cell-based
T1 construct: expressed in transfected cells
Experimental: The established HEK 293 cell lines stably expressing the hERG channel gene, Kv1.5 (Tang et al., 2007), or recombinant human cardiac KCNQ1/KCNE1 channel current (IKs) (Dong et al., 2006) was maintained separately in Dulbecco's modified eagle medium (Invitrogen) supplemented with 10% fetal bovine serum and containing 400 μg/ml G418 (for hERG or Kv1.5 channels) or 100 μg/ml hygromycin (for IKs).
The whole-cell patch-clamp technique was used for electrophysiological recording. Borosilicate glass electrodes (1.2-mm OD) were pulled with a Brown-Flamming puller (model P-97, Sutter Instrument Co, Novato, Calif., USA) and had tip resistances of 2-3 MΩ when filled with pipette solution. Membrane currents were recorded in voltage-clamp mode using an EPC-9 amplifier and Pulse software (HEKA, Lambrecht, Germany). A 3-M KCl-agar salt bridge was used as reference electrode. The tip potentials were compensated before the pipette touched the cell. After a giga-ohm seal was obtained, the cell membrane was ruptured by gentle suction to establish the whole-cell configuration. The cell membrane capacitance (pF) was directly measured using the lock-in module of the Pulse software, and used for normalizing the current in individual cells. The series resistance (Rs) was 3-5 MΩ and was compensated by 50-70% to minimize voltage errors. Perforated patch configuration was used for recording action potential in human atrial cells and IKs in HEK 293 cells as described previously (Li et al., 2002b; Dong et al., 2006). Current signals were low-pass filtered at 5 kHz and stored on the hard disk of an IBM compatible computer.
Other derivatives/analogs studied have no effect or a week inhibitory effect on Kv1.5.

hERG channels = hERG channels (Homo sapiens, UniProt Q12809); experiment: cell-based
Sequence of hERG channels (Q12809 whole entry): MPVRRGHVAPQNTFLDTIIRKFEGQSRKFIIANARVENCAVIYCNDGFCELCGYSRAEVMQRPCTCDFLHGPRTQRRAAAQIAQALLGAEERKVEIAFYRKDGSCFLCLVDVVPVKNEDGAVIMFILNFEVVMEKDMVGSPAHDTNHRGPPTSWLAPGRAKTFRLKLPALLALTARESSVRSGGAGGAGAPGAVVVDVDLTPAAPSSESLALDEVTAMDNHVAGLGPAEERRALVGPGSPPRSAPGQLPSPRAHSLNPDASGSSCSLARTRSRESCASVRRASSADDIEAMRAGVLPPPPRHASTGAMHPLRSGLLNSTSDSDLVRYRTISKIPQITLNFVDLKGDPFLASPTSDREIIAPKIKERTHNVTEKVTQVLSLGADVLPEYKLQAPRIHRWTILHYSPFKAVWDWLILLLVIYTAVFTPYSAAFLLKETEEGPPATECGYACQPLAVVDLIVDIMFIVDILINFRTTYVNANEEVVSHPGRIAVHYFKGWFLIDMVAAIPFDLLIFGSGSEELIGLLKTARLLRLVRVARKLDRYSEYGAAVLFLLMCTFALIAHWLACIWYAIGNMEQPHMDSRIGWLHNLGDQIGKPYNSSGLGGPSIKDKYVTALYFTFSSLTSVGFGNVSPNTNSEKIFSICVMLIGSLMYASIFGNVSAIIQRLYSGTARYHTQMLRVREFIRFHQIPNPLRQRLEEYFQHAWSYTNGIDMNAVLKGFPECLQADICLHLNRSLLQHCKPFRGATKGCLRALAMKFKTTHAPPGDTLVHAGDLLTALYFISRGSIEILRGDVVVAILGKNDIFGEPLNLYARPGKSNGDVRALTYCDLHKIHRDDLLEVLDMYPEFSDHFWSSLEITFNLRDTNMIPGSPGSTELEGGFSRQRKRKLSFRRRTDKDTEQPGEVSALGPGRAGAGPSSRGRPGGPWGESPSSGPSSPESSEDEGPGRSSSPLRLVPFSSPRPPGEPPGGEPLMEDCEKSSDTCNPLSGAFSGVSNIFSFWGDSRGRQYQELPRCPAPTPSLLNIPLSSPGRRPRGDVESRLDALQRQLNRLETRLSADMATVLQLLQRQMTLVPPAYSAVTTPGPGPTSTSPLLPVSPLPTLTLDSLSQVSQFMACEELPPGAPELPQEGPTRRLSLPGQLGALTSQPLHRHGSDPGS

human atrial myocytes = experiment: Action potential in human atrial myocytes, perforated patch, current clamp; assay type: cell-based
Text: Atrial cells were isolated from specimens of human right atrial appendage obtained from patients (56.1±4.7 years old) undergoing coronary artery bypass grafting. […] All patients were free from supraventricular tachyarrythmias, and the atria were grossly normal at the time of surgery. After excision, the samples were quickly immersed in oxygenated, normally Ca^2+-free cardioplegic solution for transport to the laboratory. Atrial myocytes were enzymatically dissociated as described previously (Tian et al., 2006; Gao et al., 2004). Briefly, the atrial tissue was minced, and gently agitated by continuous bubbling with 100% O2 in a Ca^2+-free Tyrode solution for 15 min (5 min at a time in fresh solutions), and then incubated for 50 min in a similar solution containing 150-200 U/ml collagenase (CLS II, Worthington Biochemical, Freehold, N.J., USA), 0.2 mg/ml protease (type XXIV, Sigma-Aldrich Chemical, St Louis, Mo., USA.) and 1 mg/ml bovine serum albumin (Sigma-Aldrich). After then, the chunks were re-incubated in a fresh enzyme solution of the same composition but no protease. The quantity and quality of isolated cells were monitored under a microscope. When the cell yield appeared optimal, the chunks were suspended in a high K medium containing (mM) 10 KCl, 120 K-glutamate, 10 KH2PO4, 1.8 MgSO4, 10 taurine, 10 HEPES, 0.5 EGTA, 20 glucose, 10 mannitol, pH was adjusted to 7.3 with KOH and gently blown with a pipette. The isolated myocytes were kept at room temperature in the medium at least 1 h before use.
A small aliquot of the solution containing the isolated cells was placed in an open perfusion chamber (1-ml) mounted on the stage of an inverted microscope. Myocytes were allowed to adhere to the bottom of the chamber for 5-10 min and were the superfused at 2-3 ml/min with Tyrode solution. Only quiescent rod-shaped cells with clear cross-striations were used. The studies were conducted at room temperature (21-22° C.) for current recording or 36° C. for action potential recording.
The whole-cell patch-clamp technique was used for electrophysiological recording. Borosilicate glass electrodes (1.2-mm OD) were pulled with a Brown-Flamming puller (model P-97, Sutter Instrument Co, Novato, Calif., USA) and had tip resistances of 2-3 MΩ when filled with pipette solution. […] A 3-M KCl-agar salt bridge was used as reference electrode. The tip potentials were compensated before the pipette touched the cell. After a giga-ohm seal was obtained, the cell membrane was ruptured by gentle suction to establish the whole-cell configuration. […] The series resistance (Rs) was 3-5 MΩ and was compensated by 50-70% to minimize voltage errors. Perforated patch configuration was used for recording action potential in human atrial cells and IKs in HEK 293 cells as described previously (Li et al., 2002b; Dong et al., 2006). Current signals were low-pass filtered at 5 kHz and stored on the hard disk of an IBM compatible computer.

anesthetized dogs [1] = experiment: In vivo electrophysiology (atrial ERP, QTc) in anesthetized dogs; design: species or system dog; settings: 5 mg/kg intraduodenal
Experimental: Adult mongrel dogs (12-15 kg) were anesthetized with pentobarbital (30 mg/kg i.v.), supplemented during the experiment when needed. The animal was intubated and ventilated with room air. Body temperature was maintained at 37-38° C. with a temperature control system. The left femoral vein was cannulated for maintenance of anesthesia and introducing the mono-phasic action potential (MAP) recording- and pacing-catheters (Boston Scientific Ltd) to the right atrium. The vagus nerves were isolated and divided in the neck. […] A left thoracotomy was performed in the fourth intercostal space, and the pericardium was incised to provide access to the left atrium for introducing the MAP catheter. The catheters were used for recording MAPs of right and left atria, respectively, and for measurement of effective refractory period (ERP). […] A ligation was made at the pylorus with a thick cotton thread to prevent the possible back flow of the duodenum content.
Following a 30-min equilibration period and measurement of atrial excitation threshold with 2-ms duration of stimuli, atrial ERP was determined using a train of 8 basic stimuli (S1, twice-diastolic threshold) followed by an identical premature stimulus (S2). The basic cycle lengths (BCL) of 200, 250 and 300 ms were applied in both right and left atria. S2 was initially delivered late in diastole in 5-ms decrements until a response was not elicited by the S2 indicated on the MAP recording. The ERP was defined as the longest S1-S2 interval failing a propagated response, and the procedure was repeated for three times for each measurement. MAP, ECG and blood pressure signals were continuously monitored and stored on an IBM compatible PC computer using a multiple channels data acquisition system (RM-6280C, Chengdu Instrument Ltd, Chendu, China).
The ERP measurement was then repeated every hour post drug administration for 6 hours. Excitation threshold of both right and left atria was verified before ERP each measurement. • 1.7.2.
The ERPs were determined in anesthetized dogs using the BCLs of 300, 250, and 200 ms by introducing S1-S2 via a programmed cardiac stimulator (FIG. 10A).

anesthetized dogs [2] = experiment: Experimental vagotonic AF in anesthetized dogs; assay type: in vivo, dog
Experimental: Sustained vagotonic AF was generated in anesthetized dogs by introducing two MAP catheters respectively into the right atrium and the left ventricle along with stimulation of the divided bilateral vagal nerves in the neck. […] Ventricular pacing was performed with 2 ms voltage pulses (2.5 Hz, 150% diastolic threshold) when vagal nerves were continuously stimulated. AF was generated by the BCL 100-ms S1 followed by S2, lasting for 10 min. […] The sustained AF could be repeatedly generated and terminated by stopping vagal stimulation. AF incidence and AF duration were recorded before and at different time points (0.5, 1, 1.5, 2, 3, and 4h) after intraduodenal administration of drugs.
AF was induced by S1-S2 stimulation at 100 ms BCL with bilateral vagal stimulation (see Methods & FIG. 12) at certain time points during the 0.5 to 4 h period following intraduodenal administration. AF lasted for 10 min and terminated once vagal stimulation was stopped. No AF occurrence or shortened AF duration during the continuous vagal stimulation were considered to represent prevention of AF.

isolated rabbit hearts = experiment: ECG (heart rate, QTc) in isolated hypokalemic rabbit hearts, Langendorff; settings: 10 μM, hypokalemic (3 mM K+) perfusion
Experimental: ECG was recorded with a Powerlab recording system via two electrodes placed respectively on base and apex of the heart.
The hearts were perfused using a hypokalemic (3 mM K^+) solution.

[3] = HEK 293 cells stably expressing Kv1.5, Table 3, read-out: Kv1.5 (IC50)
[4] = HEK293, HEK 293 cells stably expressing Kv1.5, Table 3, read-out: Kv1.5 (IC50)
[5] = BCL 200 ms, pre-treatment (baseline)
[6] = BCL 250 ms, pre-treatment (baseline)

T1 sequence (P22460 whole entry): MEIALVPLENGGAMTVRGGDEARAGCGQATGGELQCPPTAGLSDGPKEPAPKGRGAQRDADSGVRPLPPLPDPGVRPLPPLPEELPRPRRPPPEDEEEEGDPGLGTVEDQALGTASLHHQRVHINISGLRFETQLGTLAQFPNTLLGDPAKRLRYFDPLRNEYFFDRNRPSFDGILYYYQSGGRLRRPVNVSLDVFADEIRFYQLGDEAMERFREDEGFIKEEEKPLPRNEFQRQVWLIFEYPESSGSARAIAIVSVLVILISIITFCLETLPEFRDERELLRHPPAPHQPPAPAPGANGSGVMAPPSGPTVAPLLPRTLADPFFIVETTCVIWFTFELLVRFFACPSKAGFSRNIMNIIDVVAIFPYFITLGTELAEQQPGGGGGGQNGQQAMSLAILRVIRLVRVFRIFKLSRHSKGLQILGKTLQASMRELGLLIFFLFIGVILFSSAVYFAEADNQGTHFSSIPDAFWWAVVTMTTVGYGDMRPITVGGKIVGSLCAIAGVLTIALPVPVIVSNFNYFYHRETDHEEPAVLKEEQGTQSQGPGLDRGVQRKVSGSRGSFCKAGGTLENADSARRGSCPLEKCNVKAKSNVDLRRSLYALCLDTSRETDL

## CC1OC(OCC2OC(Oc3c(-c4ccc(O)c(O)c4)oc4cc(O)cc(O)c4c3=O)C(O)C(O)C2O)C(O)C(O)C1O (stereo not shown) [A-11]
Kv1.5
  IC50: > 100 µM
Kv1.5; comparative study, Table 3
  effect on Kv1.5 compared with acacetin, in words: no effects
hERG channels
  IC50: > 100 µM

## COc1ccc(-c2cc(=O)c3cc(Cl)ccc3o2)cc1 [A-5]
Kv1.5; [3]
  IC50: 23.5 µM
Kv1.5; comparative study, Table 3
  effect on Kv1.5 compared with acacetin, in words: less effect
hERG channels
  IC50: 13 µM

## Nc1ccncc1 [4-AP, reference compound]
Human atrial myocytes; 50 μM 4-AP (data not shown)
  rate dependence of APD50, APD75, APD90 prolongation, in words: reverse rate-dependent prolongation
Human atrial myocytes; 50 μM 4-AP, 2 Hz
  action potential duration, in words: prolonged APD50 more than APD90

## CCOc1cc(O)c2c(=O)cc(-c3ccc(OC)cc3)oc2c1 [A-2-14]
Kv1.5; [4]
  inhibition at 100 µM: < 50%
Kv1.5; comparative study, Table 3
  effect on Kv1.5 compared with acacetin, in words: less effect

## COc1ccc(-c2cc(=O)c3c(O)cc(OC(=O)c4ccccc4)cc3o2)cc1 [A-2-12]
Kv1.5; [4]
  inhibition at 100 µM: < 50%
Kv1.5; comparative study, Table 3
  effect on Kv1.5 compared with acacetin, in words: less effect

## COc1ccc(-c2cc(=O)c3cc(C)ccc3o2)cc1 [A-6]
Kv1.5; [3]
  IC50: 13.7 µM
Kv1.5; comparative study, Table 3
  effect on Kv1.5 compared with acacetin, in words: less effect

## COc1ccc(C(=O)Oc2cc(O)cc3oc(-c4ccc(OC)cc4)cc(=O)c23)cc1 [A-2]
Kv1.5; [3]
  IC50: 2.04 µM
Kv1.5; comparative study, Table 3
  ion channel selectivity for Kv1.5 and hERG channels compared with acacetin, in words: less ion channel selectivity
hERG channels
  IC50: 4.1 µM

## COc1ccc(-c2cc(=O)c3ccccc3o2)cc1 [A-4]
Kv1.5; [3]
  IC50: 9 µM
Kv1.5; comparative study, Table 3
  effect on Kv1.5 compared with acacetin, in words: less effect

## COc1ccc(-c2cc(=O)c3c(O)cc(OC)cc3o2)cc1 [A-2-13]
Kv1.5; HEK293, read-out: Kv1.5 (IC50, μM)
  inhibition at 100 µM: < 50%
Kv1.5; comparative study, Table 3
  effect on Kv1.5 compared with acacetin, in words: less effect

## COc1ccc(-c2cc(=O)c3c(O)cc(OC(C)=O)cc3o2)cc1 [A-2-11]
Kv1.5; [4]
  inhibition at 100 µM: < 50%
Kv1.5; comparative study, Table 3
  effect on Kv1.5 compared with acacetin, in words: less effect

## O=c1cc(-c2ccccc2)oc2cc(O)c(O)c(O)c12 [A-12]
Kv1.5; [3]
  IC50: > 100 µM
Kv1.5; comparative study, Table 3
  effect on Kv1.5 compared with acacetin, in words: no effects
hERG channels
  IC50: > 100 µM

## Oc1cc(O)c2c(c1)O[C@H](c1ccc(O)c(O)c1)[C@@H](O)C2 [A-9]
Kv1.5; [3]
  IC50: > 100 µM
Kv1.5; comparative study, Table 3
  effect on Kv1.5 compared with acacetin, in words: no effects
hERG channels
  IC50: > 100 µM

## CC(C)NCC(O)c1ccc(NS(C)(=O)=O)cc1 (stereo not shown) [Sotalol, sotalol]
Anesthetized dogs [1]; BCL 200 ms, 2 h post-treatment
  left atrial ERP (ms), BCL 200 ms: 105.1 ± 5.1 ms
Anesthetized dogs [1]; [5]
  left atrial ERP (ms), BCL 200 ms: 88.8 ± 3.7 ms
  right atrial ERP (ms), BCL 200 ms: 88.7 ± 3.9 ms
Anesthetized dogs [1]; [6]
  left atrial ERP (ms), BCL 250: 94.3 ± 3.1 ms
  right atrial ERP (ms), BCL 250: 96.3 ± 8.3 ms
Anesthetized dogs [2]; 5 mg/kg intraduodenal, vehicle 0%
  summarized anti-AF efficacy: 60%
Anesthetized dogs [2]; 5 mg/kg intraduodenal, vehicle: sustained AF in 100%
  animals in which sustained AF was not observed: 40%
Anesthetized dogs [2]; acacetin 2.5, 5, 10 mg/kg, sotalol 5 mg/kg, 1.5-2.5 h after intraduodenal administration
  incidence of AF, in words: reduced the incidence of AF

## C=C[C@H]1C[N@@]2CC[C@H]1C[C@@H]2[C@@H](O)c1ccnc2ccc(OC)cc12 [Quinidine, quinidine]
Isolated rabbit hearts
  QTc interval of ECG, in words: prolonged QTc interval
  heart rate, in words: slowed heart rate
Isolated rabbit hearts; listed as quinidine
  QTc interval of ECG, in words: significantly increased

— US7816400B2 (The University of Hong Kong, priority 2007, dated 2010)
